Experimental data: patent publication US10053721B2, “Antimicrobial resistance status determination device and method” (bioMerieux, Inc., priority 2015, dated 2018)
Like-named read-outs stand apart in the source and are kept apart here.

Tests used:
Type in all cases: cell-based
[1] = system: K. pneumoniae or E. coli isolates; test: Carbapenem-resistant Enterobacteriaceae (CRE) assay, optical density at 660 nm over time; settings: 4 ug/mL imipenem; 8 strains harboring carbapenemase genes
Experimental: BacT/ALERT® SA bottles were inoculated with 10 mL of SPS-anticoagulated normal human blood and seeded with <100 CFU of S. aureus, E. faecalis, E. faecium, E. coli and K. pneumoniae isolates. Within 15 minutes of flagging positive, the bottles were manually unloaded and either tested immediately or kept on ice until tested. If chilled, a positive bottle was warmed in a 36° C. water bath for 15-20 minutes before removing samples. The positive broth dilutions were performed manually. […]
Each strain was sub-cultured without the drug as a growth control. The resistance assay tubes (15 mL tubes fitted with septum screw-caps for diluting and sampling) were incubated in a custom-built, heated, rocking optical density unit, placed within a resistance module, and time-dependent changes in the optical at 660 nm of each culture tube were measured every 45 seconds for periods of up to 12 hours. To maximize microbial growth and minimize measurement noise, tubes were rocked between +/−18 degrees from horizontal at 36 cycles/min for 30 seconds, then returned to the upright position for 15 seconds before an optical density reading was taken. […]

S. aureus strains = test: Methicillin-resistant Staphylococcus aureus (MRSA) assay, optical density growth curves; settings: 6 μg/mL cefoxitin
Experimental: The BacT/ALERT® SA bottles were inoculated as described in Example A. The positive broth dilution for the MRSA Assay was performed as follows: broth containing a S. aureus isolate was diluted 1:20 into glass tubes containing 9.0 mL of pre-warmed CAMBH, 0.05% saponin and ±6 μg/mL cefoxitin. Ten (10) S. aureus strains representing diverse phenotypes were tested (5 resistant and 5 sensitive).
Each strain was sub-cultured without the drug as a growth control. The resistance assay tubes (15 mL tubes fitted with septum screw-caps for diluting and sampling) were incubated in a custom-built, heated, rocking optical density unit, placed within a resistance module, and time-dependent changes in the optical at 660 nm of each culture tube were measured every 45 seconds for periods of up to 12 hours. To maximize microbial growth and minimize measurement noise, tubes were rocked between +/−18 degrees from horizontal at 36 cycles/min for 30 seconds, then returned to the upright position for 15 seconds before an optical density reading was taken.
To detect MRSA directly from positive blood cultures, 10 broth samples containing S. aureus strains representing diverse phenotypes were sub-cultured for up to 12 hours with and without 6 μg/mL of cefoxitin (5 resistant and 5 sensitive strains).
To better discriminate microbial growth from background increases in media optical density, slopes of the growth curves were calculated and plotted (FIGS. 7B, 7D, and 7F).

E. faecium strains = test: Vancomycin-resistant enterococci (VRE) assay, optical density growth curves; settings: 6 μg/mL vancomycin; all 17 resistant E. faecium strains
Experimental: (§1) The BacT/ALERT® SA bottles were inoculated as described in Example A. The positive broth dilution for the […] was performed as follows: broth containing E. faecium or E. faecalis isolates was spun for 10 seconds @10,600 g in a 1.5 mL microcentrifuge tube to sediment red blood cells (RBC). One (1.0) mL of the RBC depleted supernatant was recovered and diluted into 4.0 mL of pre-warmed BacT/ALERT® SA media±6 μg/mL vancomycin. Thirty-one (31) E. faecium and 7 E. faecalis strains were tested (23 resistant and 15 sensitive).
(§2) To rapidly detect VRE in positive blood cultures, 38 broth samples containing E. faecium and E. faecalis strains were depleted of red blood cells and then diluted 1:5 in BacT/ALERT® SA blood culture media with and without 6 μg/mL of vancomycin (23 resistant and 15 sensitive strains).

E. faecalis strains = test: as above
Experimental: as §1, §2

[2] = system: van B containing E. faecalis strains; test: MIC of van B containing E. faecalis strains

With `C[C@@H](O)[C@H]1C(=O)N2C(C(=O)O)=C(SCCN=CN)C[C@H]12` [imipenem] the “time to growth in the presence of imipenem” value [1] was ≤ 2 h.
For `CO[C@@]1(NC(=O)Cc2cccs2)C(=O)N2C(C(=O)O)=C(COC(N)=O)CS[C@@H]21` [cefoxitin], the “time to growth in cefoxitin media” value (S. aureus strains; 3 of the 5 MRSA strains) was ≤ 2 h, the “growth in cefoxitin media” value (S. aureus strains; 5 sensitive S. aureus strains, by 12 hours) was “failed to grow” and the “slopes of the growth curves” value (S. aureus strains; 5 sensitive strains, after 60 min equilibration, over 720 min) was “decreasing or flat slopes”. For the same compound, the “time to growth in cefoxitin media” value (S. aureus strains; Positive Control MRSA strain ATCC 43300) was ≤ 2.5 h and the “time to growth in cefoxitin media” value (S. aureus strains; weakly resistant MRSA strain (E-test MIC=16 ug/mL)) was ≤ 4.5 h.
`CN[C@H](CC(C)C)C(=O)N[C@H]1C(=O)N[C@@H](CC(N)=O)C(=O)N[C@H]2C(=O)N[C@H]3C(=O)N[C@H](C(=O)N[C@H](C(=O)O)c4cc(O)cc(O)c4-c4cc3ccc4O)[C@H](O)c3ccc(c(Cl)c3)Oc3cc2cc(c3O[C@@H]2O[C@H](CO)[C@@H](O)[C@H](O)[C@H]2O[C@H]2C[C@](C)(N)[C@H](O)[C@H](C)O2)Oc2ccc(cc2Cl)[C@H]1O` [vancomycin] was tested, and the “time to detection of growth with vancomycin” value (“time to detection of growth” for short) (E. faecium strains) was ≤ 2 h, the “time to detection of growth” value (E. faecalis strains; 6 μg/mL vancomycin, three low MIC van B containing E. faecalis strains) was 3 to 4 h and the “time to detection of growth” value (E. faecalis strains; delayed van B isolates, starting subculture optical density raised from <0.10 to 0.25-0.45, data not shown) was 2 to 2.5 h. For the same compound, the MIC ([2]; CLSI Positive Control strain ATCC 51299, in µg/mL) was 16-24 and the MIC ([2]; Enterococcus faecalis, three van B containing E. faecalis strains, read-out: MIC) was 16 to 64 µg/mL.
